Active and inactive are the calls of the source. The calls are words filed in the database; no cut-off is given here.
Assays:
[1] = biological target: T1, Nuclear factor erythroid 2-related factor 2 (Homo sapiens) (UniProt Q16236); assay: Activation of Nrf2 in human MDA-MB-231 cells assessed as increase in ARE luciferase activity at 2 uM incubated for 16 hrs by luciferase reporter gene assay; assay type: cell-based
T1 sequence (whole entry): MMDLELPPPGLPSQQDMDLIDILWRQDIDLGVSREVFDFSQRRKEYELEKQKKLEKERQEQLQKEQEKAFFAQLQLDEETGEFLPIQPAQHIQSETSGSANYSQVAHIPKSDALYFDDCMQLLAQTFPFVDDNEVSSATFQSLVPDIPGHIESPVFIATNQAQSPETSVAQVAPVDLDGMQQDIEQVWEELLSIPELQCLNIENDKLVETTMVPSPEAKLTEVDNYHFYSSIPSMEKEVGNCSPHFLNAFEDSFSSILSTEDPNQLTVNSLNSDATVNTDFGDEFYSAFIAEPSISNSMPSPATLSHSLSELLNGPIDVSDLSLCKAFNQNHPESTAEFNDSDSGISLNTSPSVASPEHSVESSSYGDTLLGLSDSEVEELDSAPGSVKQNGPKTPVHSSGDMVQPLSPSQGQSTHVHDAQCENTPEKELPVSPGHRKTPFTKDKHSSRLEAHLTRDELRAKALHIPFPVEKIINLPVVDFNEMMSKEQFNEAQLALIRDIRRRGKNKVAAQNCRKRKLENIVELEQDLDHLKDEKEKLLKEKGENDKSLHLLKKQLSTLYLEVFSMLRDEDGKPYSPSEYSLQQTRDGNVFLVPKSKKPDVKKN

[2] = biological target: T1, Nuclear factor erythroid 2-related factor 2 (Homo sapiens); assay: Activation of Nrf2 in human MDA-MB-231 cells assessed as increase in NQO1 protein level at 0.5 uM incubated for 16 hrs by immunoblot analysis; assay type: cell-based
[3] = biological target: T1, Nuclear factor erythroid 2-related factor 2 (Homo sapiens); assay: Activation of Nrf2 in human BEAS2B cells assessed as increase in GCLM protein expression incubated for 12 hrs by immunoblot analysis; assay type: cell-based
[4] = biological target: T1, Nuclear factor erythroid 2-related factor 2 (Homo sapiens); assay: Activation of Nrf2 in human BEAS2B cells assessed as increase in KEAP1 protein expression at 0.25 to 2 uM incubated for 12 hrs by immunoblot analysis; assay type: cell-based
[5] = biological target: T1, Nuclear factor erythroid 2-related factor 2 (Homo sapiens); assay: Activation of Nrf2 in human BEAS2B cells at 0.25 to 2 uM incubated for 12 hrs by immunoblot analysis relative to SF; assay type: cell-based
[6] = biological target: T1, Nuclear factor erythroid 2-related factor 2 (Homo sapiens); assay: Activation of Nrf2 in human BEAS2B cells assessed as increase in Nrf2 protein expression at 1 uM incubated for 8 hrs by immunoblot analysis; assay type: cell-based
[7] = biological target: T1, Nuclear factor erythroid 2-related factor 2 (Homo sapiens); assay: Activation of Nrf2 in human BEAS2B cells assessed as increase in NQO1 mRNA expression at 0.5 to 2 uM incubated for 24 hrs by qRT-PCR analysis; assay type: cell-based
[8] = biological target: T1, Nuclear factor erythroid 2-related factor 2 (Homo sapiens); assay: Activation of Nrf2 in human BEAS2B cells assessed as increase in Nrf2 accumulation in nucleus at 1 uM incubated for 8 hrs by immunoblot analysis; assay type: cell-based
[9] = biological target: T1, Nuclear factor erythroid 2-related factor 2 (Homo sapiens); assay: Stabilization of Nrf2 in human BEAS2B cells harboring (HA)-ubiquitin assessed as suppression of Nrf2 ubiquitination at 1 uM after 8 hrs in presence of MG132 by immunoblot analysis; assay type: cell-based
[10] = biological target: T1, Nuclear factor erythroid 2-related factor 2 (Homo sapiens); assay: Activation of Nrf2 in human BEAS2B cells harboring Keap1-C151S mutant assessed as increase in Nrf2 protein expression at 2.5 uM after12 hrs in presence of Keap1-siRNA by immunoblot analysis; assay type: cell-based
BEAS-2B = assay: Antioxidant activity in human BEAS2B cells assessed as increase in GSH level incubated for 24 hrs; assay type: functional, cell-based
RAW264.7 [11] = assay: Cytotoxicity against mouse RAW264.7 cells assessed as reduction in cell viability < 6.25 uM after 24 hrs by MTT assay; assay type: cell-based; settings: raw264.7, 24 h
RAW264.7 [12] = assay: Inhibition of LPS-induced NFkappaB activation in mouse RAW264.7 cells pre-incubated for 1 hr followed by LPS-stimulation and measured after 16 hrs by dual luciferase reporter gene assay; assay type: cell-based
RAW264.7 [13] = assay: Inhibition of LPS-induced NFkappaB activation in mouse RAW264.7 cells assessed as decrease in phosphorylated NFkappaB p65 at 0.5 to 4 uM pre-incubated for 1 hr followed by LPS-stimulation and measured after 2 hrs by immunoblot analysis; assay type: cell-based
RAW264.7 [14] = assay: Inhibition of LPS-induced IL-6 protein expression in mouse RAW264.7 cells at 0.5 to 4 uM preincubated for 1 hr followed by LPS-stimulation and measured after 16 hrs by immunoblot analysis; assay type: functional, cell-based
RAW264.7 [15] = assay: Inhibition of LPS-induced IL-1beta protein expression in mouse RAW264.7 cells at 0.5 to 4 uM preincubated for 1 hr followed by LPS-stimulation and measured after 16 hrs by immunoblot analysis; assay type: functional, cell-based
RAW264.7 [16] = assay: Inhibition of LPS-induced IL-6 mRNA expression in mouse RAW264.7 cells at 0.5 to 4 uM preincubated for 1 hr followed by LPS-stimulation and measured after 6 hrs by qRT-PCR analysis; assay type: functional, cell-based
Mus musculus [17] = assay: Antiinflammatory activity in C57BL/6 mouse model of CS-induced pulmonary injury assessed as reduction in thickening of the alveolar septa in lungs at 2 to 4 mg/kg, ip for 5 days by hematoxylin and eosin staining based fluorescence microscopic analysis; assay type: functional, organism-based
Mus musculus [18] = assay: Antiinflammatory activity in C57BL/6 mouse model of CS-induced pulmonary injury assessed as reduction in distinct infiltration of leukocytes in lungs at 2 to 4 mg/kg, ip for 5 days by hematoxylin and eosin staining based fluorescence microscopic analysis; assay type: functional, organism-based
Mus musculus [19] = assay: Antioxidant Activity in C57BL/6 mouse model of CS-induced pulmonary injury assessed as increase in SOD level in lungs at 2 to 4 mg/kg, ip for 5 days; assay type: functional, organism-based
Mus musculus [20] = assay: Antiinflammatory activity in C57BL/6 mouse model of CS-induced pulmonary injury assessed as decrease in NFkappaB p65 protein expression in lungs at 2 to 4 mg/kg, ip for 5 days by immunoblot analysis; assay type: functional, organism-based

SMILES: CC1=C(C)C(=O)O[C@H]([C@](C)(O)[C@]2(O)CC[C@@]3(O)[C@@H]4C[C@H]5O[C@]56[C@@H](O)C=CC(=O)[C@]6(C)[C@H]4CC[C@]23C)C1
- fold change (FC) [1]: 8.5
- Activity [2]: Active
- Activity [3]: Dose-dependent effect
- Activity [4]: inactive
- fold change (FC) [5]: 2
- Activity [6]: Active
- Activity [7]: Active
- Activity [8]: Active
- Activity [9]: Active
- Activity [10]: inactive
- Activity (BEAS-2B): Active
- Activity (RAW264.7 [11]): Non-Toxic
- inhibition (RAW264.7 [12]): Dose-dependent effect
- inhibition (RAW264.7 [13]): Active
- inhibition (RAW264.7 [14]): Active
- inhibition (RAW264.7 [15]): Active
- inhibition (RAW264.7 [16]): Active
- Activity (Mus musculus [17]): Active
- Activity (Mus musculus [18]): Active
- Activity (Mus musculus [19]): Active
- Activity (Mus musculus [20]): Active
